Measured values published in patent publication US12303505B2, “Tumor-treating pharmaceutical composition” (Eisai R&D Management Co., Ltd., priority 2017, dated 2025).
Counter-ions that a name gives are not always drawn.

Legend:
Format in all cases: in vivo
[1] = tested on: Human hepatocellular carcinoma line HepG2 cells; experiment: Antitumor effect in human hepatocellular carcinoma line HepG2 subcutaneous transplantation model, nude mice
Protocol: Human hepatocellular carcinoma line HepG2 cells (JCRB Cell Bank) were cultured by using DMEM-Low glucose medium (Wako Pure Chemical Industries, Ltd.) containing 10% FBS in a 5% CO2 incubator under conditions of 37° C. When the cells became an approximately 80% confluent state, the cells were recovered by using trypsin-EDTA. A suspension was prepared by adding phosphate-buffered saline containing 50% Matrigel to the cells so as to be 10.0×10^7 cells/mL. 0.1 mL of the obtained cell suspension was subcutaneously transplanted to the sides of the bodies of five nude mice (CAnN.Cg-Foxn1^nu/CrlCrlj, Charles River Laboratories Japan, Inc.) each of a control group, an E7386 50 mg/kg alone administration group, a lenvatinib mesylate 10 mg/kg alone administration group, and a combined administration group of 50 mg/kg E7386 and 10 mg/kg lenvatinib mesylate. From 12 days after the transplantation, E7386 (50 mg/kg, b.d.s., 14 days, oral administration) and lenvatinib mesylate (10 mg/kg, q.d., 14 days, oral administration) were administered alone or in combination to the alone administration group or the combined administration group. For the administration, E7386 was dissolved in 0.1 mol/L hydrochloric acid, and lenvatinib mesylate was dissolved in 3 mmol/L hydrochloric acid. Any drug was not administered to the control group.
When the start day of administration was defined as day 1, the major axis and minor axis of tumor developed in each mouse were then measured at day 4, day 7, day 9, day 13, and day 15 by using Digimatic Caliper (Mitutoyo Corp.).
(§1) The tumor volume and the relative tumor volume (RTV) were calculated according to the following expressions. Tumor volume (mm^3)=Tumor major axis (mm)×Tumor minor axis^2 (mm^2)/2 Relative tumor volume (RTV)=Tumor volume at the measurement day/Tumor volume at the start day of administration

[2] = tested on: Human breast cancer MDA-MB-231 cells; experiment: Antitumor effect in human breast cancer MDA-MB-231 transplantation model, nude mice
Protocol: Human breast cancer MDA-MB-231 cells (ATCC) were cultured by using RPMI1640 medium (Sigma-Aldrich Co. LLC) containing 10% FBS in a 5% CO2 incubator under conditions of 37° C. When the cells became an approximately 80% confluent state, the cells were recovered by using trypsin-EDTA. A suspension was prepared by adding Hank's balanced salt solution containing 50% Matrigel to the cells so as to be 10.0×10^7 cells/mL. 0.1 mL of the obtained cell suspension was subcutaneously transplanted to the sides of the bodies of five nude mice (CAnN.Cg-Foxn1^nu/CrlCrlj, Charles River Laboratories Japan, Inc.) each of a control group, an E7386 25 mg/kg alone administration group, a lenvatinib mesylate 10 mg/kg alone administration group, and a combined administration group of 25 mg/kg E7386 and 10 mg/kg lenvatinib mesylate. From 6 days after the transplantation, E7386 (25 mg/kg, b.d.s., 10 days, oral administration) and lenvatinib mesylate (10 mg/kg, q.d., 10 days, oral administration) were administered alone or in combination to the alone administration group or the combined administration group. For the administration, E7386 was dissolved in 0.1 mol/L hydrochloric acid, and lenvatinib mesylate was dissolved in 3 mmol/L hydrochloric acid. Any drug was not administered to the control group.
When the start day of administration was defined as day 1, the major axis and minor axis of tumor developed in each mouse were then measured at day 4, day 7, and day 10 by using Digimatic Caliper (Mitutoyo Corp.).
as §1

[3] = tested on: Human hepatocellular carcinoma line SNU398 cells; experiment: Antitumor effect in human hepatocellular carcinoma line SNU398 transplantation model, nude mice
Protocol: Human hepatocellular carcinoma line SNU398 cells (ATCC) were cultured by using RPMI1640 medium (Wako Pure Chemical Industries, Ltd.) containing 10% FBS in a 5% CO2 incubator under conditions of 37° C. When the cells became an approximately 80% confluent state, the cells were recovered by using trypsin-EDTA. A suspension was prepared by adding Hank's balanced salt solution containing 50% Matrigel to the cells so as to be 5.0×10^7 cells/mL. 0.1 mL of the obtained cell suspension was subcutaneously transplanted to the sides of the bodies of eight nude mice (CAnN.Cg-Foxn1^nu/CrlCrlj, Charles River Laboratories Japan, Inc.) each of a control group, an E7386 50 mg/kg alone administration group, a lenvatinib mesylate 10 mg/kg alone administration group, and a combined administration group of 12.5, 25 or 50 mg/kg E7386 and 10 mg/kg lenvatinib mesylate. From 9 days after the transplantation, E7386 (12.5, 25, or 50 mg/kg, b.d.s., 14 days, oral administration) and lenvatinib mesylate (10 mg/kg, q.d., 14 days, oral administration) were administered alone or in combination to the alone administration group or the combined administration group. For the administration, E7386 was dissolved in 0.1 mol/L hydrochloric acid, and lenvatinib mesylate was dissolved in 3 mmol/L hydrochloric acid. Any drug was not administered to the control group.
When the start day of administration was defined as day 1, the major axis and minor axis of tumor developed in each mouse were then measured at day 6, day 9, day 12, and day 15 by using Digimatic Caliper (Mitutoyo Corp.).
as §1

[4] = Day 9, E7386 50 mg/kg b.d.s. oral alone
[5] = Day 15, E7386 50 mg/kg b.d.s. oral alone
[6] = Day 4, lenvatinib mesylate 10 mg/kg q.d. oral alone
[7] = Day 7, lenvatinib mesylate 10 mg/kg q.d. oral alone
[8] = Day 9, lenvatinib mesylate 10 mg/kg q.d. oral alone
[9] = Day 15, lenvatinib mesylate 10 mg/kg q.d. oral alone

C=CCN1CC(=O)N2[C@@H](Cc3ccc(O)cc3F)C(=O)N(Cc3cccc(N4CC(N5CCN(CC)CC5)C4)n3)C[C@@H]2N1C(=O)NCc1ccccc1 [E7386, (6S,9aS)—N-Benzyl-8-({6-[3-(4-ethylpiperazin-1-yl)azetidin-1-yl]pyridin-2-yl}methyl)-6-(2-fluoro-4-hydroxybenzyl)-4,7-dioxo-2-(prop-2-en-1-yl)hexahydro-2H-pyrazino[2,1-c][1,2,4]triazine-1(6H)-carboxamide]
Relative tumor volume (RTV), mean±SD ([1]; Day 4, E7386 50 mg/kg b.d.s. oral alone): 1.45 ± 0.23 | Relative tumor volume (RTV), mean±SD ([1]; Day 7, E7386 50 mg/kg b.d.s. oral alone): 3.05 ± 0.57 | Relative tumor volume (RTV), mean±SD [1, 4]: 3.96 ± 0.53 | Relative tumor volume (RTV), mean±SD ([1]; Day 13, E7386 50 mg/kg b.d.s. oral alone): 5.60 ± 1.02 | Relative tumor volume (RTV), mean±SD [1, 5]: 6.23 ± 1.39 | Relative tumor volume (RTV), mean±SD ([2]; Day 4, E7386 25 mg/kg b.d.s. oral alone): 2.34 ± 0.11 | Relative tumor volume (RTV), mean±SD ([2]; Day 7, E7386 25 mg/kg b.d.s. oral alone): 3.19 ± 0.38 | Relative tumor volume (RTV), mean±SD ([2]; Day 10, E7386 25 mg/kg b.d.s. oral alone): 4.49 ± 0.51 | Relative tumor volume (RTV), mean±SD ([3]; Day 6, E7386 50 mg/kg b.d.s. oral alone): 3.74 ± 0.75 | Relative tumor volume (RTV), mean±SD [3, 4]: 6.31 ± 1.74 | Relative tumor volume (RTV), mean±SD ([3]; Day 12, E7386 50 mg/kg b.d.s. oral alone): 7.33 ± 0.89 | Relative tumor volume (RTV), mean±SD [3, 5]: 10.1 ± 1.03

COc1cc2nccc(Oc3ccc(NC(=O)NC4CC4)c(Cl)c3)c2cc1C(N)=O [Lenvatinib mesylate, 4-(3-chloro-4-(cyclopropylaminocarbonyl)aminophenoxy)-7-methoxy-6-quinolinecarboxamide, reference compound]
Relative tumor volume (RTV), mean±SD [1, 6]: 1.10 ± 0.08 | Relative tumor volume (RTV), mean±SD [1, 7]: 1.60 ± 0.94 | Relative tumor volume (RTV), mean±SD [1, 8]: 2.07 ± 0.88 | Relative tumor volume (RTV), mean±SD ([1]; Day 13, lenvatinib mesylate 10 mg/kg q.d. oral alone): 2.70 ± 1.47 | Relative tumor volume (RTV), mean±SD [1, 9]: 3.43 ± 1.46 | Relative tumor volume (RTV), mean±SD [2, 6]: 2.01 ± 0.60 | Relative tumor volume (RTV), mean±SD [2, 7]: 2.41 ± 0.60 | Relative tumor volume (RTV), mean±SD ([2]; Day 10, lenvatinib mesylate 10 mg/kg q.d. oral alone): 2.67 ± 1.23 | Relative tumor volume (RTV), mean±SD ([3]; Day 6, lenvatinib mesylate 10 mg/kg q.d. oral alone): 3.98 ± 1.00 | Relative tumor volume (RTV), mean±SD [3, 8]: 6.48 ± 1.74 | Relative tumor volume (RTV), mean±SD ([3]; Day 12, lenvatinib mesylate 10 mg/kg q.d. oral alone): 8.33 ± 2.08 | Relative tumor volume (RTV), mean±SD [3, 9]: 9.71 ± 2.30
